This passage reports % of inhibition, % of control and % of engagement results from ChEMBL document CHEMBL5465560, “Selectivity Literature for EUbOPEN Chemogenomic Library” (2024).

Experiment [1] addresses T1, Protein kinase C iota type (Homo sapiens) (UniProt P41743).
T1 sequence (whole entry): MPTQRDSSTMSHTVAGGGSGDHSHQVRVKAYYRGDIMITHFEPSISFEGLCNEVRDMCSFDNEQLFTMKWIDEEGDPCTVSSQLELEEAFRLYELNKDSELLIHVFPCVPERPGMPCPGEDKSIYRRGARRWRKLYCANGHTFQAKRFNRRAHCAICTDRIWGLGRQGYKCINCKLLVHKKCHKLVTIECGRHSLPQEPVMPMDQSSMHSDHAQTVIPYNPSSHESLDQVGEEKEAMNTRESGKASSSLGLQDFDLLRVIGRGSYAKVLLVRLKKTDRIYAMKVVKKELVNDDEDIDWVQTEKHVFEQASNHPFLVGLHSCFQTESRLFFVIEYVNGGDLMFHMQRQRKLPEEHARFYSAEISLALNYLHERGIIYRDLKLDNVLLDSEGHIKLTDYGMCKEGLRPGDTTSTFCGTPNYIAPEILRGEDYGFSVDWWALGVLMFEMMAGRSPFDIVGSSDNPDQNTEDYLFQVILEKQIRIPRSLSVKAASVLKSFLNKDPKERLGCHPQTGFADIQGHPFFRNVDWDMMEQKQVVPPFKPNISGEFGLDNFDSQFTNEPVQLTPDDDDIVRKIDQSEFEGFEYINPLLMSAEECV
In words: Selectivity interaction (Upstate Kinase Profiler service (Millipore)) EUB0000056c PRKCI. The note with it: at 1 µM.

The target in experiment [2] is Protein kinase C theta type (Homo sapiens, UniProt Q04759). Put plainly: Selectivity interaction (ProQinase) EUB0000171b PRKCQ.
Protein kinase C theta type, sequence (Q04759 whole entry, looked up): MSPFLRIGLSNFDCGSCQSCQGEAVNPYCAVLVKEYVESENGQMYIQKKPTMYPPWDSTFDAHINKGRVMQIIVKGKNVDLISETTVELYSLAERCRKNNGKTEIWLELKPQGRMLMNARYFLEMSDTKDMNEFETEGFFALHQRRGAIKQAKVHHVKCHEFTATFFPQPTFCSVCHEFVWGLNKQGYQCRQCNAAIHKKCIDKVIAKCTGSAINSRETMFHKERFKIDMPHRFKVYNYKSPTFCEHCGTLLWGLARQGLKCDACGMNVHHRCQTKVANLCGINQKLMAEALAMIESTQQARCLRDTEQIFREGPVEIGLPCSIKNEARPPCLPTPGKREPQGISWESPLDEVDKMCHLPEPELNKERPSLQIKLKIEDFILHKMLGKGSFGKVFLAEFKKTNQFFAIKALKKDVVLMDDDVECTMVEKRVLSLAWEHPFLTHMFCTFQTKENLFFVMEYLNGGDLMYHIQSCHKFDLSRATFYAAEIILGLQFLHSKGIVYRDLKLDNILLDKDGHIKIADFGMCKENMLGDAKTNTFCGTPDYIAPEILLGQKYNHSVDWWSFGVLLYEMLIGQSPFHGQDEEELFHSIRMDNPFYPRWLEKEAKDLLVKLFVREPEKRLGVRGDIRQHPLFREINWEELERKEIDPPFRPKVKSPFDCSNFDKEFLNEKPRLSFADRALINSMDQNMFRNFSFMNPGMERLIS
The target of experiment [3] is Ribosomal protein S6 kinase alpha-2 (Homo sapiens) (UniProt Q15349). The note with it: at 10 µM.
Experiment [4] has as its target Mitogen-activated protein kinase 4 (Homo sapiens) (UniProt P31152). The note with it: at 10 µM.
Experiment [5] deals with Ribosomal protein S6 kinase alpha-4 (Homo sapiens) (UniProt O75676). In words: Selectivity interaction (KinomeScan (DiscoverX)) EUB0001079a RPS6KA4. The note with it: at 1 µM.
Ribosomal protein S6 kinase alpha-4 (Homo sapiens), sequence (O75676 whole entry, looked up): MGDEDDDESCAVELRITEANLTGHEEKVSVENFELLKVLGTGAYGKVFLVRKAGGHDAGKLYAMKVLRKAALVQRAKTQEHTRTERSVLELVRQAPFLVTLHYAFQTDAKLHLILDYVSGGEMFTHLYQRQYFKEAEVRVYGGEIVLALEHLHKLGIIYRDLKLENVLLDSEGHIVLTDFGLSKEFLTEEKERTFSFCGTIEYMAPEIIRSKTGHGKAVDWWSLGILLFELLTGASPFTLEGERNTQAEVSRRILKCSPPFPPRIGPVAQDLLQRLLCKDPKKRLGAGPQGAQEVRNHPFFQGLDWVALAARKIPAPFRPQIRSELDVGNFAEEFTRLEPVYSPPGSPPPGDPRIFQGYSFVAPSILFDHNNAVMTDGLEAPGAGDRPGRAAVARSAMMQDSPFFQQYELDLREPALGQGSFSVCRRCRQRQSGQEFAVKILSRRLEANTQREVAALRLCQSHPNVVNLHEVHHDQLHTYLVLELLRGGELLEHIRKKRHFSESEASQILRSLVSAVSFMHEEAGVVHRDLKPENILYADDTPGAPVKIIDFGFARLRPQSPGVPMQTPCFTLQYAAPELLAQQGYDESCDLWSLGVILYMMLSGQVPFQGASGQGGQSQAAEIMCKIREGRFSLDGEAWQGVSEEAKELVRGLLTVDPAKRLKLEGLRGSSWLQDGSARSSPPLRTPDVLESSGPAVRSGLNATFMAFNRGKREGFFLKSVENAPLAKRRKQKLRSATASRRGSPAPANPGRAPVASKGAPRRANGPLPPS
For experiment [6], the target named is Cyclin-dependent kinase 1 (Homo sapiens) (UniProt P06493). In words: Selectivity interaction (Kinase screening (Nanosyn)) EUB0000604a CDK1.
Cyclin-dependent kinase 1 (Homo sapiens), sequence (P06493 whole entry, looked up, the tested form may be a part): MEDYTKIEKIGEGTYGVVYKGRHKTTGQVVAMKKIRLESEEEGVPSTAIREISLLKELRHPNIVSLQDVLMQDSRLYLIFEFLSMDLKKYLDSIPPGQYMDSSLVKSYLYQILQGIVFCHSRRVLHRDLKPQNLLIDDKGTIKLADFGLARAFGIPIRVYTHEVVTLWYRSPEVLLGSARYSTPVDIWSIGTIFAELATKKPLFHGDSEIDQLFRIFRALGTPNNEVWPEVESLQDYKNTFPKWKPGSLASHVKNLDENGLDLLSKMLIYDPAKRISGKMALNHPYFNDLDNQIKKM
The target in experiment [7] is LIM domain kinase 2 (Homo sapiens) (UniProt P53671). In words: Selectivity interaction (KinomeScan (DiscoverX)) EUB0000666a LIMK2. The note with it: at 10 µM.
LIM domain kinase 2 (Homo sapiens), sequence (P53671 whole entry, looked up, the tested form may be a part): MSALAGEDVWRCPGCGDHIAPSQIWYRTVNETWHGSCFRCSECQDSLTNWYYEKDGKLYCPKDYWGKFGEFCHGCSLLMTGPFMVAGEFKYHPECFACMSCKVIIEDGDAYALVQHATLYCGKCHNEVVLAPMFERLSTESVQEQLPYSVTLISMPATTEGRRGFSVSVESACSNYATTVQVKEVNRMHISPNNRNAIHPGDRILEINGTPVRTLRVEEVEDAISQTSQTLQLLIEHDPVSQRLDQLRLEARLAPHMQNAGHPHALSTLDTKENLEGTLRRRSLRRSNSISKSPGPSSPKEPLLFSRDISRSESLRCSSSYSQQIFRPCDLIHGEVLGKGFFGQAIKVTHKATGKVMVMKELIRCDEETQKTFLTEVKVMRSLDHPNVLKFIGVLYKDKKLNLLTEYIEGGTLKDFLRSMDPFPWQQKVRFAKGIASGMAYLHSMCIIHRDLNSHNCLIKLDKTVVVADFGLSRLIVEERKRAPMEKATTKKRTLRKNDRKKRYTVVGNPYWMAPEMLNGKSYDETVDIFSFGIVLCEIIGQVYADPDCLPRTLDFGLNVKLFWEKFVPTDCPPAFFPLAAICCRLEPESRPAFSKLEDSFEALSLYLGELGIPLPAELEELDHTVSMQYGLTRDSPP
Experiment [8] concerns the target T2, Mitogen-activated protein kinase kinase kinase kinase 3 (Homo sapiens) (UniProt Q8IVH8).
T2 sequence (whole entry): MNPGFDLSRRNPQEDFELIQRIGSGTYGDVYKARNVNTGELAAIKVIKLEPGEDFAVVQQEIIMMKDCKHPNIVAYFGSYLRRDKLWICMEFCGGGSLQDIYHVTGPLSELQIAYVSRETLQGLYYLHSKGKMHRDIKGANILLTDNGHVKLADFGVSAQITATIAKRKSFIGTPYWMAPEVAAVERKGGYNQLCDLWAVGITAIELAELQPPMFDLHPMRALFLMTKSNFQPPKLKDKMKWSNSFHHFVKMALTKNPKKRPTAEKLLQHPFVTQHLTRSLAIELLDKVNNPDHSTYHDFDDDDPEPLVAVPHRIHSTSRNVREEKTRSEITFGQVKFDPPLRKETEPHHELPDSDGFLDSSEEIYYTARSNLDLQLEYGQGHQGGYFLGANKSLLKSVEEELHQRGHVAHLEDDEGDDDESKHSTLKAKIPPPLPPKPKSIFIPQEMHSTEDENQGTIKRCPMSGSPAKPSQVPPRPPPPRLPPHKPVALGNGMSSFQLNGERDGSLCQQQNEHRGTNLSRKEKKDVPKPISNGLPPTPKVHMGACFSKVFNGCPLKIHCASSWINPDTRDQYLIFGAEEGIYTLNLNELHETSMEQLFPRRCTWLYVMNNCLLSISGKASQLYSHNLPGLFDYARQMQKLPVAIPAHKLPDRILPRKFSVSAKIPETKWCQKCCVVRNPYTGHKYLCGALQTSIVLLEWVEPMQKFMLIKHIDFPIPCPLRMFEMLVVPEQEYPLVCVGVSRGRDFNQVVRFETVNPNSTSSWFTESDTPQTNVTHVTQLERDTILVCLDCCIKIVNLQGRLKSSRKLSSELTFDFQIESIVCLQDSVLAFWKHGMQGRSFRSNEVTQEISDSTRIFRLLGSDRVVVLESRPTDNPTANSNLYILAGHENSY
In words: Selectivity interaction (KinomeScan (DiscoverX)) EUB0000607a MAP4K3. To be noted: at 10 µM.

Experiment [9] deals with Mitogen-activated protein kinase 9 (Homo sapiens, UniProt P45984). Put plainly: Selectivity interaction (ActivX KiNativ screen (kinase selectivity in THP-1 cell lysates)) EUB0000639a MAPK9. To be noted: lysate, at 1 µM. In kind it is subcellular.
Mitogen-activated protein kinase 9, sequence (P45984 whole entry, looked up): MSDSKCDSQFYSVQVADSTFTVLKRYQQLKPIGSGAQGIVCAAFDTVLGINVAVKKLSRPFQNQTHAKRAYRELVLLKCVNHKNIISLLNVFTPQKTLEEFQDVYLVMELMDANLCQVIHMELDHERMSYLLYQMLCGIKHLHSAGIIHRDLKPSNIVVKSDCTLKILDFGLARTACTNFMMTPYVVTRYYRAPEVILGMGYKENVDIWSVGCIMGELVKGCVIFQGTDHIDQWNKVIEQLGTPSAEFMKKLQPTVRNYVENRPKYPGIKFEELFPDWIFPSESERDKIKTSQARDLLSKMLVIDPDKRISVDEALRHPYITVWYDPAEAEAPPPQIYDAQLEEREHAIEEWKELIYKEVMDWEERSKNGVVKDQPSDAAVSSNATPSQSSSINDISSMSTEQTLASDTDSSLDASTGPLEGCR
Experiment [10] deals with Cyclin-dependent kinase 5 (Homo sapiens, UniProt Q00535). In words: Selectivity interaction (KinomeScan (DiscoverX)) EUB0000595a CDK5. The note with it: at 10 µM.
Cyclin-dependent kinase 5, sequence (Q00535 whole entry, looked up): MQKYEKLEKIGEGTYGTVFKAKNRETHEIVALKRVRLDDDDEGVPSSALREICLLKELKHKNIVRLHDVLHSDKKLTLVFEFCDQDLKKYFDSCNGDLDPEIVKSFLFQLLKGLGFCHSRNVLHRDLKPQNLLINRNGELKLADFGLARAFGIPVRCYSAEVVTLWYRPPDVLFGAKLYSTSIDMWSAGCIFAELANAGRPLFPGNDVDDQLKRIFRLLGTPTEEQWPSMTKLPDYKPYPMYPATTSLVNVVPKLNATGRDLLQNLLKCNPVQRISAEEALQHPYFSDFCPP
Experiment [11] deals with Serine/threonine-protein kinase PRP4 homolog (Homo sapiens) (UniProt Q13523). Put plainly: Selectivity interaction (KinomeScan (DiscoverX)) EUB0001619a PRPF4. The note with it: at 1 µM.
Serine/threonine-protein kinase PRP4 homolog (Homo sapiens), sequence (Q13523 whole entry): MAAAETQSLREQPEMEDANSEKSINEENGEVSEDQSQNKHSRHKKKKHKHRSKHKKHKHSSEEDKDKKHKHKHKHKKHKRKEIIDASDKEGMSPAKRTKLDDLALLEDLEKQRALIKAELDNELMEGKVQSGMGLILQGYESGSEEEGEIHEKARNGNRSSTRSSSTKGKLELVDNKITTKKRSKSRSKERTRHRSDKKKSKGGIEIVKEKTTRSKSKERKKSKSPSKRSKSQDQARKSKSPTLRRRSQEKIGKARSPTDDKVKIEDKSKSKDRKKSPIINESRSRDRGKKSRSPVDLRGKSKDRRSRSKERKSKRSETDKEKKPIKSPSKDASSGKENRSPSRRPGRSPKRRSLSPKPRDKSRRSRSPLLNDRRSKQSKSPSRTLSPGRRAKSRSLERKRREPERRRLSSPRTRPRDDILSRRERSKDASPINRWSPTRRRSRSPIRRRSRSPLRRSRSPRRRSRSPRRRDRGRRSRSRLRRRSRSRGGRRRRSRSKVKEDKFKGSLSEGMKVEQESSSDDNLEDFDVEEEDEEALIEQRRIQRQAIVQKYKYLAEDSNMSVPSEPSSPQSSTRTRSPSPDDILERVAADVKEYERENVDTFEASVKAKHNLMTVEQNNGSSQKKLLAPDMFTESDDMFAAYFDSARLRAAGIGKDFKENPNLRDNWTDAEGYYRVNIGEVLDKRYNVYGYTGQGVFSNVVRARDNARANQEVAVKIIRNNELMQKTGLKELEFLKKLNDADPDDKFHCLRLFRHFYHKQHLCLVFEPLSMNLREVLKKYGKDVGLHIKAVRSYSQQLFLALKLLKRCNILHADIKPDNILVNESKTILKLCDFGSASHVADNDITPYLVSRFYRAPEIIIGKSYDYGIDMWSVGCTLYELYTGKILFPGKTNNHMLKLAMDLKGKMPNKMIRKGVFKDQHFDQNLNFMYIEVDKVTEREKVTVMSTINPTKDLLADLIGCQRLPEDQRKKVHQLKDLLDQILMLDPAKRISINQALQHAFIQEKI
In experiment [12] the target is T3, Dual specificity mitogen-activated protein kinase kinase 6 (Homo sapiens) (UniProt P52564).
T3 sequence (whole entry): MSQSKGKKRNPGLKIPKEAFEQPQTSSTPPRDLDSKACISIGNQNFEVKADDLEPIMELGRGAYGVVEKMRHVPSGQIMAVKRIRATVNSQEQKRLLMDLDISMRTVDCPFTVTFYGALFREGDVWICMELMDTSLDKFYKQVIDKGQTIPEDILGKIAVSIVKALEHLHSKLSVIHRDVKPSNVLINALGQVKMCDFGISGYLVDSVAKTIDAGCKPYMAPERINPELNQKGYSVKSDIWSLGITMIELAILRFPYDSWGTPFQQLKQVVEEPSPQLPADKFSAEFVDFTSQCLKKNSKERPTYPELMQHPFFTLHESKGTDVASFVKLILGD
Put plainly: Selectivity interaction (Kinase panel (KiNativ target engagement assay in Jurkat cells)) EUB0001635a MAP2K6. Format: cell-based. To be noted: Selectivity number of off-targets 0.0, Selectivity number of targets 233.0, Source Knowledge https://www.sciencedirect.com/science/article/pii/S2451945619300674?via%3Dihub, at 1 µM.

Each structure is given as a SMILES string.

Mitogen-activated protein kinase 4 (Homo sapiens), sequence (P31152 whole entry): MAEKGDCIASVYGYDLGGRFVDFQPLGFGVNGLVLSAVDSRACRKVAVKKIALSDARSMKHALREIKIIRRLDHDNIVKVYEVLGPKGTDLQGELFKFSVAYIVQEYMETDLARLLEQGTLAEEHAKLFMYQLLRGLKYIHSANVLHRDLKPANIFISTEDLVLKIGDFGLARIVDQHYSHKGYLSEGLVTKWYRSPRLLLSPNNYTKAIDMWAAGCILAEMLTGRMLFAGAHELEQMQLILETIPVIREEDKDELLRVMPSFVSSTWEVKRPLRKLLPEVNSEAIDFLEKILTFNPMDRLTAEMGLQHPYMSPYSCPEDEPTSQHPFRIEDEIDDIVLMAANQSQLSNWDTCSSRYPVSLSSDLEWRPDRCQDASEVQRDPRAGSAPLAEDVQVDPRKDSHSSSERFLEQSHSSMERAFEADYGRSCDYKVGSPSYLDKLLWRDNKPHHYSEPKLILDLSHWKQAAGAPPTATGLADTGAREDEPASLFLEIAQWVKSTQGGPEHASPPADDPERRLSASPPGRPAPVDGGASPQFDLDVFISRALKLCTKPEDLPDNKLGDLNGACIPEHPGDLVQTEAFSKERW

Turning to `Cc1ccc(-c2ccc3c(ccc4sc5c(c43)NC[C@@H](C)NC5=O)n2)cn1`, the % of inhibition in experiment [1] is -10%.
Turning to `C=CC(=O)Nc1cccc(C(=O)Nc2ccc(Nc3cc(-c4[nH]c(SC)nc4C)ccn3)cc2)c1`, the figures for the % of control in experiment [2] (at 1 µM) and in experiment [2] (at 5 µM) were 97% and 96%, respectively.
As for `Cc1cc([C@@H](C)Nc2ccccc2C(=O)O)c2nc(N3CCOCC3)cc(=O)n2c1` [AZD-6482], the % of control in experiment [3] amounted to 97%; in [4], 98%.
Regarding `Nc1cnc(N2CCc3cc(S(=O)(=O)Nc4c(F)cc(Cl)cc4F)cc(N4CCCC4=O)c32)nc1` [TP-020n], the % of control in [5] stood at 100%.
For `Cc1cnc(Nc2ccc(F)cc2Cl)nc1-c1c[nH]c(C(=O)N[C@H](CO)c2cccc(Cl)c2)c1`, the % of inhibition in [6] worked out at 7%.
Consider `O=C(NOC[C@H](O)CO)c1ccc(F)c(F)c1Nc1ccc(I)cc1F`, for which, in [7], the % of control is 100%.
Compound `CNC(=O)Nc1ccc(-c2nc(N3CC4CCC(C3)O4)c3cnn(C4CCC5(CC4)OCCO5)c3n2)cc1` showed a % of control in [8] of 94%.
For `CC[C@@H]1[C@H](F)C(=O)N[C@@H]1COc1nccc2cc(C(N)=O)c(OC)cc12` [ZIMLOVISERTIB], the % of inhibition in experiment [9] was -5.9%.
Turning to `COCC(=O)NC/C=C/c1ccc2ncnc(Nc3ccc(Oc4ccc(C)nc4)c(C)c3)c2c1` [CP-724714], the % of control in experiment [10] came out at 100%.
In experiment [11], `N#Cc1cccc(-c2c[nH]c3ncnc(N4CCOCC4)c23)c1` had a % of control of 92%.
`C=CC(=O)Nc1ccc(C(=O)Nc2[nH]nc3c2CN(C(=O)N[C@H](CN(C)C)c2ccccc2)C3(C)C)cc1`: the % of engagement in [12] is -2.9%.
